Experiment: Inhibition of [3H]-TCP binding to PCP receptor obtained from tissue homogenate preparation of fresh whole rat brain minus cerebellum

## c1ccc2c(c1)C1CCC2(N2CCCCC2)C1 (stereo not drawn) [1-(3,4-Dihydro-2H-1,4-methano-naphthalen-1-yl)-piperidine]
  IC50: 107 µM

## c1ccc2c(c1)C1CCC2(N2CCCCC2)CC1 [1-Tricyclo[6.2.2.0*2,7*]dodeca-2(7),3,5-trien-1-yl-piperidine]
  IC50: 118 µM

## c1ccc2c(c1)C1CCCCC21N1CCCCC1 (stereo not drawn) [1-(1,3,4,8b-Tetrahydro-2H-biphenylen-4a-yl)-piperidine]
  IC50: 4.27 µM

Reference: BindingDB's records for doi:10.1021/jm970059p (University of Illinois At Chicago, 1998)
